In patent US20160303181A1, “SYNERGISTIC COMBINATION OF ALANINE-GLUTAMINE, HYALURONIC ACID AND OAT EXTRACT AND THE USE THEREOF IN A COMPOSITION INTENDED FOR HEALING WOUNDS AND REPAIRING SKIN LESIONS” (PIERRE FABRE DERMO-COSMETIQUE, priority 2013, published 2016):
Marks after values point to notes of the source that are not given here. Residues, ends and D or L forms follow the SMILES beside them.

Tested on: HaCaT human keratinocyte line
Experiment: Migration of keratinocytes, Oris Cell Migration Assay
Assay type: cell-based
Settings: DMEM 0% FCS, 24 hours; for effect on the migration of keratinocytes (in words): oat seedling extract 10 or 30 μg/ml, hyaluronate 20 or 60 μg/ml, L-alanyl-L-glutamine 40 or 90 μg/ml, EGF 33 ng/ml; for % Migration (percentage activity compared to the control 0% FCS): control = 100
Description: The objective of this test was to evaluate the effect of hyaluronic acid, oat seedling extract, L-alanyl-L-glutamine and combinations thereof on the migration of keratinocytes using the Oris Cell Migration Assay kit (Platypus Technologies).
The spontaneously immortalised HaCaT human keratinocyte line, frequently cited as reference model in the literature was used.
The protocol used for the study of cell migration is based on the use of a 96 well kit, the Oris Cell Migration Assay (Platypus technologies—TEBU), enabling the miniaturisation and the quantification of this cellular process.
The principle of this test consists in studying cell migration towards the centre of the wells of the 96 well plate. It consists in placing a stopper in the wells, in order to create a 2 mm diameter detection zone. Then removing the stoppers once cells have properly adhered to the surface around them, and thus to enable cells to migrate towards the detection zone. The plates without stoppers and with the active ingredients are incubated at 37° C. for 24 hours in DMEM (Dulbecco's Modified Eagle Medium) 0% FCS (foetal calf serum). The quantity of cells situated in the zone where the stopper was is analysed in order to evaluate the migration of the cells. A mask makes it possible to visualise and to count uniquely the cells situated in this zone. For each condition, the average is determined on 6 to 8 wells.
The cells were incubated in FCS-free medium.
• EGF: 33 ng/ml, • oat seedling extract: 10 or 30 μg/ml,
Filtering. Concentration by drying until a dry extract is obtained. • sodium hyaluronate (molecular weight 250-450 kDa): 20 or 60 μg/ml, • L-alanyl-L-glutamine: 40 or 90 μg/ml.
The Results are Expressed: • In fluorescence intensity (FI), proportional to the quantity of cells having migrated. • In percentage activity compared to the control 0% FCS.
Statistical analyses by the Dunnett test were carried out on the crude migration values. This test then gives “p value” values characterising the significance of the results obtained for different conditions. The degree of significance was fixed at […]

[1] = Table 1, lower concentrations: EGF 33 ng/ml, ES 10 μg/ml, AH 20 μg/ml, A-G 40 μg/ml, control 1850
[2] = Table 1, lower concentrations: EGF 33 ng/ml, ES 10 μg/ml, AH 20 μg/ml, A-G 40 μg/ml
[3] = Table 2, higher concentrations: EGF 33 ng/ml, ES 30 μg/ml, AH 60 μg/ml, A-G 90 μg/ml, control 1729 ± 384
[4] = Table 2, higher concentrations: EGF 33 ng/ml, ES 30 μg/ml, AH 60 μg/ml, A-G 90 μg/ml

Row | Molecule | effect on the migration of keratinocytes (in words) | Average ± SD (fluorescence intensity, proportional to the quantity of cells having migrated) [1] | % Migration (percentage activity compared to the control 0% FCS) [2] [%] | Average ± SD (fluorescence intensity, proportional to the quantity of cells having migrated) [3] | % Migration (percentage activity compared to the control 0% FCS) [4]
1 | C[C@H](N)C(=O)N[C@@H](CCC(N)=O)C(=O)O [A-G, L-alanyl-L-glutamine] (H-Ala-Gln-OH) | induces the migration of keratinocytes in a concentration-dependent manner | 2471 ± 788 | 200 | 2586 ± 1092 | 194%
2 | sodium hyaluronate [AH] | did not have any significant effect on the migration of keratinocytes | 1939 ± 438 | 114 | 1735 ± 488 | 101%
3 | EGF: positive control of the migration experiments, 33 ng/ml | induces the migration of keratinocytes | 2569± | 216 | 3553 ± 1556 | 301 * %
